Test results: patent US20170305894A1, “PPAR AGONISTS, COMPOUNDS, PHARMACEUTICAL COMPOSITIONS, AND METHODS OF USE THEREOF” (priority 2014, published 2017)

Tests used:
[1] = tested on: FGF1a promoter; experiment: Luciferase reporter assay of FGF1a promoter co-transfected with PPARδ; format: cell-based; settings: with or without the ligand
Description: FIGS. 3A-3G illustrate that PPARδ regulates FGF1a to promote micro-vascularization. *P<0.05; **P<0.01. All error bars are SEM. FIG. 3A provides immunofluorescence staining for CD31 on transverse sections of uninjured TA from WT and TG animals. FIG. 3B provides quantification of CD31 positive capillary number (n=4). FIG. 3C illustrates the FGF1a mRNA level in TA of WT and TG by QPCR (n=5). FIG. 3D provides a Western blot for FGF1. FIG. 3E provides immunofluorescence staining for CD31 positive capillaries on transverse sections of TA, 5 days after the injury (n=3). FIG. 3F provides quantification for CD31 positive capillaries on transverse sections of TA, 5 days after the injury (n=3). FIG. 3G provides luciferase reporter assays of FGF1a promoter co-transfected with PPARδ with or without the ligand, GW501516.
Increased vasculature is one of the hallmarks of oxidative myofibers, which facilitates introduction of immune cells and also supports increased number of satellite cells. TG animals show increased expression of FGF1 in TA muscle (FIG. 3D). Upon injury, TG animals maintain high expression of FGF1 expression (FIG. 3D). […] Furthermore, after the injury, TG animals show increased expression of CD31, which is indicative of increased vascularity (FIGS. 3E-F). […] Therefore, increased vascularity may contribute to the accelerated regenerative process observed in VP16-PPARδ animals.

[2] = tested on: C57BL6J mice, thermal injury to the TA; experiment: Acute pharmacological activation of PPARδ in freeze burn (thermal) injury of the TA muscle; format: in vivo
Protocol: TA muscles were injured according to previously published methods with a few modifications (Brack et al., Science 317(5839):807-810 (2007)). A stainless steel 1 g weight (Mettler-Toledo) equilibrated to the temperature of dry ice was placed directly on the exposed TA for 10 seconds. Following the thermal injury, incision was closed using VetBond (3M). All injury procedures were performed on the left leg, and the right leg was used as control.
(Hamer et al., J Anat 200(Pt 1):69-79 (2002)). Sterile 1% w/v Evans Blue dye in PBS was intraperitoneally injected at 1% volume relative to the body mass of an animal. Seven hours after the injection, injured TA muscles were harvested and snap-frozen by isopentane quenching in liquid nitrogen. Frozen sections were cut in 10 μm thickness, fixed in ice-cold acetone, dipped in xylene and mounted with DPX. Proportion of the stained area over the total area was measured using ImageJ software.
50 mg/kg body weight of BrdU (Sigma) was injected intraperitoneally as solution of 10 mg/mL BrdU in saline. TA muscles were harvested at 7 days after injury and processed for paraffin sections as described above. BrdU incorporation was visualized using the BrdU Labeling and Detection Kit I (Roche) and BrdU+ nuclei were counted and represented as a proportion of total nuclei in a field.
Whole or partial tissues were homogenized by Polytron probe homogenizer in Trizol reagent (Invitrogen). Total RNA was extracted from the homogenates according to the manufacturer's protocol. One microgram of DNase-treated total RNA was reverse transcribed using Superscript II Reverse Transcriptase (Invitrogen) according to the manufacturer's instructions. cDNAs were diluted 1/40 with ddH2O and used as templates in RT-QPCR reactions with SYBRGreenER qPCR SuperMix detection system (Invitrogen). Samples were prepared in technical triplicates and relative mRNA levels were calculated by using the standard curve methodology and normalized against GAPDH mRNA levels in the same samples.

`Cc1cc(SCc2sc(-c3ccc(C(F)(F)F)cc3)nc2C)ccc1OCC(=O)O` [GW501516] was tested, and the “FGF1a promoter luciferase reporter activity” value [1] was “induction of FGF1a”, the “initial inflammatory responses (inflammatory marker genes)” value ([2]; 12 hours after the injury, with or without ligand) was “similarly generated” and the “expressions of inflammatory marker genes by QPCR” value ([2]; 3 days after the injury) was “significantly reduced”. For the same compound, the “reduction in the proportion of stained area” value ([2]; 5 days after the injury, versus vehicle, orally 5 mg/kg) was 34.7%, the “expression of PPARδ target genes (PDK4, CPT1b, and catalase) in TA by QPCR” value ([2]; 9 day treatment, orally 5 mg/kg) was “Up-regulation” and the “myoblast proliferation (BrdU positive nuclei)” value ([2]; BrdU injection at 48 hours after the injury) was “promoted myoblast proliferation”. For the same compound, the “increase in the number of quiescent satellite cells” value ([2]; after 9 days or 4 weeks of ligand treatment) was “not observed” and the “Evans Blue dye uptake, proportion of muscle cross sectional area (CSA) stained” value ([2]; orally 5 mg/kg for 4 days prior to and 5 days after injury, 5 days after the injury, vehicle 7.6%) was 4.9%.
